Data published in patent US20260224494A1, “MILVEXIAN PHARMACEUTICAL COMPOSITIONS” (BRISTOL-MYERS SQUIBB COMPANY, priority 2023, published 2026).
Values joined by “and” are separate entries in the source; they are usually repeats but may differ in a detail not shown here. Identical values can stand only once. Like-named read-outs stand apart in the source and are kept apart here.

Key:
Assay type in all cases: physicochemical
[1] = Solubility in different aqueous media at 37° C.; details: for solubility at 1 day / solubility at 3 days: 37 °C, thermodynamic from solid
[2] = Solubility test of milvexian (P1.Acetone) in DCM/MeOH 70/30 w/w %, appearance over 20 hours; details: 3.75 g in 19.83 g DCM and 8.5 g MeOH (70/30 w/w %); approximately 20 hours stirring
Experimental: Due to the turbid appearance of the solution when dissolving the milvexian (P1.Acetone) in 70/30 w/w % DCM/MeOH, a solubility test was performed by adding 3.75 g of milvexian (P1.Acetone) to a mixture of 19.83 g DCM and 8.5 g MeOH (DCM/MeOH 70/30 w/w %) under stirring by a magnetic stirrer. The appearance of the solution was evaluated at different timepoints over 20 hours.

[3] = Solubility of milvexian forms in organic solvent systems; details: 20 °C, organic solvent or mixture, thermodynamic from solid, 20° C.; for solubility at 2 weeks: read-out: Solubility in mg/mL solution 2 weeks; for solubility at 24 hours: read-out: Solubility in mg/mL solution 24 hours
Experimental: While heating of the feed solution is a viable solution for production, it is a more complex set-up and with risk of crashing out dissolved solids in case of cold spots and plant safety. Various solvent systems (See Table 11 below) were investigated with primary focus on solvent systems containing DCM due to its low boiling point and excellent solubilization properties.
Based on the data it was determined that 70/30 w/w % DCM/MeOH and 80/20 w/w % were promising solvent mixtures and more accurate solubility determination was carried out for 80/20 w/w % DCM/MeOH for both FORM A and P1.Acetone solvate at 20° C. with the results shown in Table 12 below.
P1.Acetone was the preferred crystalline form of milvexian for physical stability and manufacturability reasons. Based on the above, 80/20 w/w % DCM/MeOH solvent system was selected for development due to highly increase solubility over the 90/10 w/w % Acetone/Water solvent system.

C[C@@H]1CCC[C@H](n2cnc(-c3cc(Cl)ccc3-n3cc(Cl)nn3)cc2=O)c2cc(ccn2)-c2c(cnn2C(F)F)NC1=O [P1.Acetone solvate]
Solubility, μg dissolved per mL at 37° C., replicates ([1]; 0.05M sodium acetate buffer pH 4.5, 1 day, single replicates): 1.57 µg/mL | Solubility, μg dissolved per mL at 37° C., replicates ([1]; 0.05M sodium acetate buffer pH 4.5, 3 days, single replicates): 1.95 µg/mL | Solubility, μg dissolved per mL at 37° C., replicates ([1]; 0.05M sodium phosphate buffer pH 6.8, 1 day, single replicates): 1.29 µg/mL and 1.48 µg/mL | Solubility, μg dissolved per mL at 37° C., replicates ([1]; 0.05M sodium phosphate buffer pH 6.8, 3 days, single replicates): 1.62 µg/mL | solubility at 1 day ([1]; 0.1M HCl, pH 1, simulated gastric fluid, 0.1M HCl, 1 day, average of 3 replicates, read-out: Solubility, μg dissolved per mL at 37° C., Average): 3.43 µg/mL | solubility at 1 day ([1]; 0.1M HCl, pH 1, simulated gastric fluid, 0.1M HCl, 1 day, single replicates, read-out: Solubility, μg dissolved per mL at 37° C., replicates): 3.36 µg/mL | solubility at 3 days ([1]; 0.1M HCl, pH 1, simulated gastric fluid, 0.1M HCl, 3 days, average of 3 replicates, read-out: Solubility, μg dissolved per mL at 37° C., Average): 3.49 µg/mL | solubility at 3 days ([1]; 0.1M HCl, pH 1, simulated gastric fluid, 0.1M HCl, 3 days, single replicates, read-out: Solubility, μg dissolved per mL at 37° C., replicates): 3.59 µg/mL | Solubility, μg dissolved per mL at 37° C., replicates ([1]; 0.1M HCl, 1 day, single replicates): 3.47 µg/mL and 3.46 µg/mL | Solubility, μg dissolved per mL at 37° C., replicates ([1]; 0.1M HCl, 3 days, single replicates): 3.30 µg/mL and 3.58 µg/mL | solubility at 1 day ([1]; sodium acetate buffer, pH 4.5, aqueous buffer, 0.05M sodium acetate buffer pH 4.5, 1 day, average of 3 replicates, read-out: Solubility, μg dissolved per mL at 37° C., Average): 1.69 µg/mL | solubility at 1 day ([1]; sodium acetate buffer, pH 4.5, aqueous buffer, 0.05M sodium acetate buffer pH 4.5, 1 day, single replicates, read-out: Solubility, μg dissolved per mL at 37° C., replicates): 1.81 µg/mL | solubility at 3 days ([1]; sodium acetate buffer, pH 4.5, aqueous buffer, 0.05M sodium acetate buffer pH 4.5, 3 days, average of 3 replicates, read-out: Solubility, μg dissolved per mL at 37° C., Average): 1.88 µg/mL | solubility at 3 days ([1]; sodium acetate buffer, pH 4.5, aqueous buffer, 0.05M sodium acetate buffer pH 4.5, 3 days, single replicates, read-out: Solubility, μg dissolved per mL at 37° C., replicates): 1.85 µg/mL | solubility at 1 day ([1]; sodium phosphate buffer, pH 6.8, aqueous buffer, 0.05M sodium phosphate buffer pH 6.8, 1 day, average of 3 replicates, read-out: Solubility, μg dissolved per mL at 37° C., Average): 1.43 µg/mL | solubility at 1 day ([1]; sodium phosphate buffer, pH 6.8, aqueous buffer, 0.05M sodium phosphate buffer pH 6.8, 1 day, single replicates, read-out: Solubility, μg dissolved per mL at 37° C., replicates): 1.53 µg/mL | solubility at 3 days ([1]; sodium phosphate buffer, pH 6.8, aqueous buffer, 0.05M sodium phosphate buffer pH 6.8, 3 days, average of 3 replicates, read-out: Solubility, μg dissolved per mL at 37° C., Average): 1.6 µg/mL | solubility at 3 days ([1]; sodium phosphate buffer, pH 6.8, aqueous buffer, 0.05M sodium phosphate buffer pH 6.8, 3 days, single replicates, read-out: Solubility, μg dissolved per mL at 37° C., replicates): 1.56 µg/mL | solubility test, appearance of the solution [2]: not fully dissolved | solubility at 2 weeks ([3]; 60/40 DCM/MeOH, 60/40 DCM/MeOH): 99 mg/mL | solubility at 24 hours ([3]; 60/40 DCM/MeOH, 60/40 DCM/MeOH): 102 mg/mL | solubility at 2 weeks ([3]; 70/30 DCM/MeOH, 70/30 DCM/MeOH): 160 mg/mL | solubility at 2 weeks ([3]; 80/20 DCM/MeOH, 80/20 DCM/MeOH): 227 mg/mL | solubility at 24 hours ([3]; 80/20 DCM/MeOH, 80/20 DCM/MeOH): 226 mg/mL | solubility at 2 weeks ([3]; 90/10 DCM/MeOH, 90/10 DCM/MeOH): 225 mg/mL | solubility at 24 hours ([3]; 90/10 DCM/MeOH, 90/10 DCM/MeOH): 222 mg/mL | solubility at 2 weeks ([3]; 95/5 DCM/MeOH, 95/5 DCM/MeOH): 162 mg/mL | solubility at 24 hours ([3]; 95/5 DCM/MeOH, 95/5 DCM/MeOH): 163 mg/mL | solubility at 2 weeks ([3]; 100% DCM, 100% DCM): 33 mg/mL | solubility at 24 hours ([3]; 100% DCM, 100% DCM): 33 mg/mL | solubility at 2 weeks ([3]; 100% MeOH, 100% MeOH): 4.8 mg/mL | solubility at 24 hours ([3]; 100% MeOH, 100% MeOH): 4.6 mg/mL
